Assay [1] relates to T cell avatar A_4_2 (Jurkat expressing TCR from human islet-infiltrating CD4+ T cell, Donor A). Nature of the assay: T cell avatar NanoLuciferase response to synthetic peptide. The following applies: highest concentration tested 20 μM. The format is cell-based. From the text: Briefly, we used CRISPR/Cas9 to generate a variant of the human T cell line Jurkat that was deficient in TRAC, TRBC, and CD4. […] This parental Jurkat line was then transduced with the TRAV and TRBV constructs that express the TRAV and TRBV genes that form the TCR expressed by human islet-infiltrating CD4^+ T cells. […] Transduced cells expressing CD3 and TCR were purified by flow cytometry or magnetic bead enrichment. Briefly, cells were resuspended in viral supernatant at 1–2 × 10^6/ml with 5 μg/ml polybrene. Cells were centrifuged at 1,200 rpm (300 g) for 60 min at room temperature, then diluted 1:1 in fresh medium and incubated overnight at 37 °C, 5% CO2. […] Compensation settings were determined using single-color controls. […]
The HIP super-pool bacteria were cultured from frozen glycerol stock in LB media with antibiotics at 37 °C with agitation 210 rpm. […] After 22–24 h of coculture, the NanoLuciferase activity was measured using the Nano-Glo Luciferase assay (Promega) according to the manufacturer's instructions. Luminescence was measured on a plate reader (Enspire Perkin Elmer). Responses are reported as the Δluciferase, which is calculated by subtracting the average background (no antigen) luciferase reading measured in the negative control cultures from the response measured in the other treatments. […]

The subject of assay [2] is T cell avatar A_4_7. The assay is described as above. The format is cell-based, human. Conditions: highest concentration tested 20 μM. The text has this: (§1) Briefly, we used CRISPR/Cas9 to generate a variant of the human T cell line Jurkat that was deficient in TRAC, TRBC, and CD4. […] This parental Jurkat line was then transduced with the TRAV and TRBV constructs that express the TRAV and TRBV genes that form the TCR expressed by human islet-infiltrating CD4^+ T cells. […] Transduced cells expressing CD3 and TCR were purified by flow cytometry or magnetic bead enrichment. Briefly, cells were resuspended in viral supernatant at 1–2 × 10^6/ml with 5 μg/ml polybrene. Cells were centrifuged at 1,200 rpm (300 g) for 60 min at room temperature, then diluted 1:1 in fresh medium and incubated overnight at 37 °C, 5% CO2. Flow cytometry was performed on a Becton Dickinson LSR Fortessa to determine the proportion of CD3 and TCR expressing cells. The following antihuman mAbs were used for FACS staining: CD3-PE (UCHT1, BD Biosciences), and anti-TCRαβ-AF647 (IP26, BioLegend). Cells were stained with the appropriate mAb in phosphate buffered saline (PBS) 0.1% foetal bovine serum (FBS) for 20 min on ice, then washed twice. Dead cells were excluded by propidium iodide staining. Compensation settings were determined using single-color controls. TCR and CD3 expressing cells were purified by FACS or using REALease CD3 Microbead Kit (Miltenyi) following the manufacturer's instructions. All Jurkat T cell avatars used were >85% CD3^+/TCR^+.
(§2) The HIP super-pool bacteria were cultured from frozen glycerol stock in LB media with antibiotics at 37 °C with agitation 210 rpm. The overnight HIP-expressing bacteria cultures were diluted to an OD600 of 0.06 and grown in 48-well plates in 200 μl LB medium with antibiotics until an OD600 of 0.5 was reached. […] After 22–24 h of coculture, the NanoLuciferase activity was measured using the Nano-Glo Luciferase assay (Promega) according to the manufacturer's instructions. Luminescence was measured on a plate reader (Enspire Perkin Elmer). Responses are reported as the Δluciferase, which is calculated by subtracting the average background (no antigen) luciferase reading measured in the negative control cultures from the response measured in the other treatments.
(§3) Peptides (Genscript) were dissolved in dimethyl sulfoxide (DMSO) to 5.0 mM, aliquoted and stored at −80 °C. The CD4^+ T cell avatars' responses to peptides were measured as described above; except synthetic peptides were used as antigens, instead of E. coli and the antigen/EBV cells were not cultured overnight before the T cell avatars were added. A T cell's response to antigen was measured as luciferase activity using the Nano-Glo Luciferase assay system (Promega) according to the manufacturer's instructions (as above). The HLA-restriction of the HIP-specific CD4^+ T cell clones was determined in a two-step process as described previously ([10]). […]

Assay [3] deals with T cell avatar A_4_8. The description is as above. The class given is cell-based, human. Conditions: highest concentration tested 20 μM.
From the text: as §1, §2, §3

Assay [4] relates to HIP-specific T cell avatars. In words: T cell avatar NanoLuciferase response, panel of HIP-specific avatars. The following applies: nine HIP-specific avatars; highest concentration 20 μM; weak left-hand response in 3 of 9 avatars; very weak C-peptide response in three cases. The class given is cell-based, human. The protocol:
as §2, with “reached. Protein expression was induced by adding isopropyl β-D-thiogalactopyranoside (2.0 mM, Sigma). Incubation was continued for another 4 h at 37 °C in a shaking incubator.” for “reached.”
Peptides (Genscript) were dissolved in dimethyl sulfoxide (DMSO) to 5.0 mM, aliquoted and stored at −80 °C. The CD4^+ T cell avatars' responses to peptides were measured as described above; except synthetic peptides were used as antigens, instead of E. coli and the antigen/EBV cells were not cultured overnight before the T cell avatars were added. […] The T cell avatar's responses were measured as above. […]

Another assay relates to T cell avatar A_4_5. Conditions: previous characterisation, clone A4.5 (A_4_5); ref [15, 34]; cited from earlier work. The text has this: (§4) Supplement pgae491_supplementary_data.docx, table 6: Supplementary Table 6. Summary of previous characterisation of human islet-infiltrating CD4^+ T cells. | column: HLA-restriction
The next assay relates to T cell avatar A_4_6. Conditions: previous characterisation, clone A3.10 (A_4_6); ref [15, 34]; cited from earlier work.
From the text: as §4

For another assay, the system named is T cell avatar K_4_161. In words: T cell avatar NanoLuciferase response to synthetic peptide. The class given is cell-based, human.
From the text: as §1, §2, §3

Assay [5] deals with T cell avatar A_4_2 (Jurkat expressing TCR from human islet-infiltrating CD4+ T cell, Donor A). Conditions: previous characterisation, clone A1.9 (A_4_2); ref [5, 34]; cited from earlier work.
From the text: as §4

In assay [6] the test system is T cell avatar A_4_7. The following applies: previous characterisation, clone A5.5 (A_4_7); ref [5]; cited from earlier work.
From the text: as §4

The subject of assay [7] is T cell avatar A_4_8. Conditions: previous characterisation, clone A5.8 (A_4_8); ref [5]; cited from earlier work.
From the text: as §4

For “EAEDLQVGQVELGGGPGAGSLQPLALEGSLQ [C-peptide, full-length proinsulin C-peptide]”, the “response to full-length C-peptide (Δluciferase)” value (in assay [1]; with T cell avatar A_4_7 [2]; with T cell avatar A_4_8 [3]) was “very weak” each time. Besides, in assay [4], the “T cell avatar response (Δluciferase) to native peptide” value is recorded as “did not respond”.
In the case of “GQVELGGG-NAVEVLK [HIP-6, previously reported C-peptide-IAPP2 HIP]”, the HLA-restriction entry in the assay with T cell avatar A_4_5 and with T cell avatar A_4_6 was “HLA-DQ8” each time.
A word on the EC50: it is the concentration giving half of the maximal effect. Read a low EC50 as an effect from little substance. Regarding “REAEDLQVG-VCGERGF [HIP-K, hybrid insulin peptide formed by fusion of proinsulin fragments]”, in the assay with T cell avatar K_4_161 (blocking mAbs and single-HLA APC lines, peptide 1.0 μM), the HLA restriction result is “DQ8”. In addition, the EC50 in the assay on T cell avatar K_4_161 (synthetic peptide titration, autologous EBV B cells, NanoLuciferase, triplicate) was above 20 µM.
On to VELGGGPGA, for which the HLA-restriction result (in assay [5]; with T cell avatar A_4_7 [6]; in the assay with T cell avatar A_4_8 [7]) was “HLA-DQ8” each time.

Values taken from paper PMC11565411, “Proinsulin C-peptide is a major source of HLA-DQ8 restricted hybrid insulin peptides recognized by human islet-infiltrating CD4^+ T cells” (PNAS Nexus, 2024).
